Patent US12178878B2, “Amyloid peptide scaffolds coordinate with Alzheimer's disease drugs” (The University of Massachusetts, priority 2018, dated 2024)

Tests used:
[1] = system: […] (SEQ ID NO: 3) amyloid peptide; assay: Coordination at higher peptide concentration (amyloid gel, 5 mg/mL), inhibitor capturing; assay type: binding; conditions: for capturing efficiency: relative to 2nd pellet wash, UV-Vis; for AD compound captured, Wash 1 / AD compound captured, Wash 2 / AD compound captured, Wash 3: 1000 μM inhibitor solution added; for AD compound captured, Wash 1: 1st pellet wash; for AD compound captured, Wash 2: 2nd pellet wash; for AD compound captured, Wash 3: 3rd pellet wash
Protocol: Amyloid Fibrils Preparation and Characterization. For the formation of fibrils, the amyloid peptides were dispersed in DI water at a 10 mg/ml, vortexed, heated at 60° C. for 30 sec, and sonicated for 15 mins (this cycle was repeated 10 times overall), and finally left overnight at room temperature to form a hydrogel. […] That was confirmed with Field Emission Scanning Electron Microscopy (FESEM) and Congo Red staining (CR).
Coordination Studies at Higher Peptide Concentrations and Inhibitor Capturing. […] (SEQ ID NO: 4) or […] (SEQ ID NO: 3) amyloid peptide gels (10 mg/mL, 1 mL volume) and was left to physically complex under stirring overnight (the final peptide concentration was diluted to 5 mg/mL). A control using 1 mL of 0.1 M PBS (no inhibitor) was also prepared. The complexed amyloid/inhibitor materials were then transferred to 5 mL conical Eppendorf tubes, and centrifuged for 15 mins at 4,400 rpm (14° C.). The supernatant was decanted, and 2 mL of DI water were subsequently added to wash the pellet (followed by vortexing until obtaining a homogenous dispersion) in order to remove any unbound inhibitor. The samples were then centrifuged again at the same conditions so as to pelletize the amyloid materials, and the supernatant was decanted. Another 2 mL of DI water were then added into the pellet, the mixture was vortexed, and the physically bound inhibitor into the amyloid peptides was quantified by UV-Vis between 200-600 nm and MS. This step is denoted as wash 1 in our study. Two additional pellet purification cycles were realized with replacement of the decanted volume each time with 2 mL of fresh DI water (denoted as wash 2 and wash 3 respectively). The inhibitor-containing amyloid peptides were normalized at 400 nm over the respective no inhibitor-containing ones at the specific washing step.

[2] = system: […] (SEQ ID NO: 4) amyloid peptide; assay: Incubation of amyloid gel containing inhibitor in PBS at 37° C., drug retained; assay type: binding; conditions: YFTGAIIGNFY 5 mg/mL; for AD compound captured after incubation, Wash 2: 2nd pellet wash; for AD compound captured after incubation, Wash 3: 3rd pellet wash
Protocol: Incubation of Amyloid Gels-Containing Inhibitors in PBS at 37° C. […] (SEQ ID NO: 4) amyloid gels were prepared at 10 mg/mL (1 mL) and a 0.1 M PBS solution of Donepezil was added at 1000 μM (1 mL) and was left to stir overnight (the final peptide concentration was diluted to 5 mg/mL). A control of 1 mL 0.1 M PBS was also prepared. The complexed amyloid/inhibitor was sequentially centrifuged, and the same volume of water (2 mL) was added in the pellet to wash it (followed by vortexing until obtaining a complete dispersion) and remove the unbound inhibitor (wash 1). The sample was centrifuged, the pellet was isolated, and 2 mL of 0.1 M PBS was added, followed by overnight incubation under stirring at 37° C. The inhibitor-containing peptide was then pelletized, the supernatant was decanted, and the peptide/inhibitor dispersion was quantified after addition of 2 mL water (wash 2). A second washing step with 2 mL fresh water was subsequently realized and the pellet was quantified again (wash 3). Example 2: Coordination of the Designed Amyloid Peptides with AD drugs in Dilute Solution.

[3] = FYTGAIIGNYF gel 5 mg/mL, by UV-Vis
[4] = incubated at 37° C. in PBS for one day after wash 1, by MS
[5] = incubated at 37° C. in PBS for one day after wash 1, by UV-Vis

| Compound | capturing efficiency ([1]; FYTGAIIGNYF 5 mg/mL) [%] | AD compound captured, Wash 1 ([1]; FYTGAIIGNYF gel 5 mg/mL, by MS) [µM] | AD compound captured, Wash 2 ([1]; FYTGAIIGNYF gel 5 mg/mL, by MS) [µM] | AD compound captured, Wash 3 ([1]; FYTGAIIGNYF gel 5 mg/mL, by MS) [µM] | AD compound captured, Wash 1 [1, 3] [µM] | AD compound captured, Wash 2 [1, 3] [µM] | AD compound captured, Wash 3 [1, 3] [µM] | AD compound captured after incubation, Wash 2 [2, 4] [µM] | AD compound captured after incubation, Wash 3 [2, 4] [µM] | AD compound captured after incubation, Wash 2 [2, 5] [µM] | AD compound captured after incubation, Wash 3 [2, 5] [µM] | capturing efficiency ([1]; […] 5 mg/mL) | AD compound captured, Wash 1 ([1]; […] gel 5 mg/mL, by MS) [µM] | AD compound captured, Wash 2 ([1]; […] gel 5 mg/mL, by MS) [µM] | AD compound captured, Wash 3 ([1]; […] gel 5 mg/mL, by MS) [µM] | AD compound captured, Wash 1 ([1]; […] gel 5 mg/mL, by UV-Vis) [µM] | AD compound captured, Wash 2 ([1]; […] gel 5 mg/mL, by UV-Vis) [µM] | AD compound captured, Wash 3 ([1]; […] gel 5 mg/mL, by UV-Vis) [µM] |
| --- | --- | --- | --- | --- | --- | --- | --- | --- | --- | --- | --- | --- | --- | --- | --- | --- | --- | --- |
| COc1cc2c(cc1OC)C(=O)C(CC1CCN(Cc3ccccc3)CC1)C2 (stereo not drawn) [donepezil] | 17 | 163 ± 4 | 151 ± 1 | 148 ± 3 | 187 ± 19 | 173 ± 33 | 160 ± 33 | 128 ± 12 | 120 ± 18 | 121 ± 25 | 110 ± 31 |  |  |  |  |  |  |  |
| Nc1c2c(nc3ccccc13)CCCC2 [tacrine] |  |  |  |  |  |  |  |  |  |  |  | approximately 8% | 114 ± 6 | 102 ± 2 | 94 ± 10 | 104 ± 16 | 82 ± 9 | 72 ± 10 |
